Data reported in paper PMC3664642, “A Peptide against Soluble Guanylyl Cyclase α1: A New Approach to Treating Prostate Cancer” (PLoS ONE, 2013).
“Also recorded” adds a separate entry of the source. Where no end group is shown, it is not given here.

Legend:
AKT = experiment: Western blot of AKT in cells; assay type: cell-based; conditions: LNCaP, 25 µM, Fig. S4A
Procedure: Western blotting was performed as described using primary antibodies against sGCα1 (Cayman Chemical), pan-Akt (Cell Signaling Technology), phospho-AKT (S473, T308) (Cell Signaling Technology), phospho-PDK1 (Cell Signaling Technology), phospho-GSK-3β (Cell Signaling Technology), PARP (Cell Signaling Technology), and β-Actin (Abcam).
Supplementary file pone.0064189.s004.tif: Figure S4 Peptide A-mediated down-regulation of AKT is not involved in its cytotoxicity to prostate cancer cells. Western blotting was used to measure the levels of total AKT or Ser-473-phosphorylated AKT in (A) LNCaP cells treated with Vehicle, Peptide A-8R, or Peptide C-8R (25 µM) for different times, as shown, (B) mouse xenograft tumors treated with Vehicle or Peptide A-8R, or (C) LNCaP cells infected with Empty or AKT-expressing adenovirus and treated with Peptide A-8R at different concentration, as shown, for 30 min. Note that β-actin was used to control for protein loading. (D) LNCaP cells, infected with Empty or AKT-expressing adenovirus, were grown in 10% serum under different concentrations of Peptide A-8R, as shown. Cell number was measured after 0–6 days of incubation. Data points represent averages of three independent experiments plus standard deviations. (TIF) Click here for additional data file.

sGCα1 = target: T1, sGCα1 (Homo sapiens, UniProt Q02108); experiment: Biotin pulldown and competition from LNCaP extract; assay type: binding; conditions: competition, 150 µg unlabeled peptide vs 5 µg Peptide A-8R-Biotin; Fig. 2B
T1 sequence (Q02108 1-690): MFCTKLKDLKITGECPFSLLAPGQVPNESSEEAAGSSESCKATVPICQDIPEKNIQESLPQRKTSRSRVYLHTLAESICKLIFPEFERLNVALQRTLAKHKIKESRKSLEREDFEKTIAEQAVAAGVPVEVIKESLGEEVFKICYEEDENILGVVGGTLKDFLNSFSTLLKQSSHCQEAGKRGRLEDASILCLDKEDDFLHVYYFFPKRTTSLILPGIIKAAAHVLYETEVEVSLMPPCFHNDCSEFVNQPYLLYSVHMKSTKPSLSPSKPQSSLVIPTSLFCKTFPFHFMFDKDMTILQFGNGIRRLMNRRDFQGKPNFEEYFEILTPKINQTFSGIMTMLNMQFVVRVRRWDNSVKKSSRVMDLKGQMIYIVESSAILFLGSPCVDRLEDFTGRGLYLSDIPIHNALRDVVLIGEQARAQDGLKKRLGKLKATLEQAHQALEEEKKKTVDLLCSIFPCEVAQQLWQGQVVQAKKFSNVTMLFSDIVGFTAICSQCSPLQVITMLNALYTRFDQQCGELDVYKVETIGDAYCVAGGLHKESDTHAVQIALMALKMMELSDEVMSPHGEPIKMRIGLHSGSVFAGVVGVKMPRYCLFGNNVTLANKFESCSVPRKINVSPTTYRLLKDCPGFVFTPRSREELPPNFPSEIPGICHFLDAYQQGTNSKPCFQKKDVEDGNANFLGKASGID
Procedure: Immunoprecipitation (IP) in LNCaP cells was performed as described previously. Whole-cell extracts from LNCaP cells were subjected to IP using Protein A/G plus Agarose (Santa Cruz). IP antibodies were against sGCα1 (Cayman Chemical), sGCβ1 (Cayman Chemical), or rabbit IgG (Santa Cruz) as control. For Biotin pulldown, 5 µg Biotin-labeled Peptide A was incubated with NeutrAvidin Agarose Resin (Thermo Scientific) for 3 hours at 4°C, after which whole-cell extract from LNCaP cells was added and incubated overnight at 4°C. Resin was washed and eluted with SDS Sample buffer, followed by SDS-PAGE gel electrophoresis.
Figure 2 Peptide A-8R interacts with sGCα1 in prostate cancer cells. (A) LNCaP cells were treated with 25 µM Biotin-labeled Peptide A-8R for 2 hrs and subjected to immunocytochemistry using anti-sGCα1 or anti-Biotin antibody to measure subcellular co-localization of endogenous sGCα1 and Peptide A-8R. DAPI was used to stain nuclei. (B) LNCaP cytosolic extracts were incubated with Peptide A-8R-Biotin and subjected to purification using streptavidin-agarose. This pull-down experiment was repeated with competing excess amount of unlabeled Peptide C-8R or Peptide A-8R. In both cases Western blotting was used to measure the co-purification of sGCα1. […] Co-purified Peptide A-8R-FITC was quantified by measuring fluorescence signal emission. […] Cell number was measured after 0–48 hrs of incubation. […]

CWR-22Rv1 cells = experiment: Proliferation/cytotoxicity, castration-resistant CWR-22Rv1 cells (MTT); assay type: cell-based; conditions: different concentrations; Fig. 3C; averages of three independent experiments; P<0.03 vs Vehicle
Procedure: (§1) LNCaP, C81, PC-3 and Cos cells were grown as previously described. CWR-22Rv1 cells were cultured in RMPI-1640 medium with 10% FBS and 50 µg/ml Gentamicin (Gibco). Control siRNA, sGCα1 siRNA and AKT siRNA (Dharmacon) at 50 nM final concentration was transfected into cells using Lipofectamine siMAX (Invitrogen).
(§2) For proliferation, cells were grown in medium containing 2% FBS extracted with dextran-coated charcoal (DCC). 48 hours later, ethanol or 1 nM R1881 was added to the cells followed by peptide treatment. The MTT assay (Sigma) was used as before to determine cell number. For apoptosis, 5000 cells were seeded in 96-well plates and treated with Vehicle (DMSO), Peptide A-8R (25 µM), Etoposide (50 µM) (Sigma) at different time points. The Caspase (3/7) activity was measured using Apo-ONE Homogeneous Caspase-3/7 assay kit (Promega). PARP cleavage was also used to measure apoptosis, and is described below.
(§3) Vehicle or different concentrations of Peptide A-8R or C-8R, as shown, was added to (A) hormone-dependent LNCaP cells grown in 2% serum without or with 1 nM R1881, (C) castration-resistant C81 or CWR-22Rv1 cells, or (E) sGCα1-deficient PC-3 or Cos cells. Cell number was measured after various days of incubation. Data points represent averages of three independent experiments plus standard deviations. […]

Cos cells = experiment: Proliferation/cytotoxicity, sGCα1-deficient Cos cells (MTT); assay type: cell-based, African green monkey; conditions: different concentrations, Fig. 3E
Procedure: as §1, §2, §3

## Ac-TFCKAFPFHIIRRRRRRRR [Peptide A-8R]
AKT; Ser-473
  effect on phosphorylated AKT level: similarly affected
AKT; time course, 50 min
  effect on total AKT protein level: strong, time-dependent negative effect on the AKT protein, such that by 50 min most of the measurable AKT is gone; also recorded: significantly reduces AKT protein levels
sGCα1
  inhibition of Peptide A-8R-Biotin interaction with sGCα1: significantly inhibited Peptide A-8R-Biotin interaction with sGCα1
CWR-22Rv1 cells
  suppression of growth of CWR-22Rv1 cells: also effective on another hormone-refractory prostate cancer cell line, CWR-22Rv1 cells
Cos cells
  effect on Cos cells: little to no effect
